Test results taken from patent publication US8546320B2, “Hsp9O-targeted anti-cancer chimeric peptide” (Kyoto University, priority 2008, dated 2013).
Where a SMILES comes first, the peptide text is derived from it.

Key:
Caki-1 = assay type: cell-based, human; conditions: Caki-1; for Anti-cancer activity (% relative to wild-type peptide) / Decrease in cell survival rate (% relative to wild-type peptide): wild-type peptide = 100%
Description: A total of 3×10^3 cells were inoculated per well on a 96 well plate and cultured in a medium containing 10% FBS for 24 hours, and incubated with 100 μl of a peptide having a gradual increase in concentration at 37° C. for 48 to 72 hours. The survival rate of the cells was measured by using WST-8 solution (Cell Count Reagent SF; Nacalai Tesque, Inc.).
(§1) Respective variant peptides were subjected to cell viability assay. Specifically, Caki-1 (American Type Culture Collection (Manassas, Va.) was inoculated in a total amount of 3×10^3 cells per well on a 96 well plate (Nunc™); the cells were cultured in a medium (DMEM (Tesque, Inc.) containing 10% FBS (fetal bovine serum; Biowest)) for 24 hours and incubated with 100 μl of a peptide having a gradual increase in concentration at 37° C. for 48 to 72 hours. The cell survival rate was measured by using WST-8 solution (Cell Count Reagent SF; Nacalai Tesque, Inc.) and compared with that of the wild-type Antp-TPR peptide.
as §1, with “medium” for “medium (DMEM (Tesque, Inc.)”, “FBS” for “FBS (fetal bovine serum; Biowest))”

cancer cells = test: Cell viability assay, summary statements on cancer cells; assay type: cell-based; conditions: single mutation in TPR or Antp region of Antp-TPR

CC[C@H](C)[C@H](NC(=O)[C@H](CCCNC(=N)N)NC(=O)[C@H](C)NC(=O)[C@H](Cc1ccc(O)cc1)NC(=O)[C@H](C)NC(=O)[C@H](CCCCN)NC(=O)[C@H](CCCNC(=N)N)NC(=O)[C@H](CCCCN)NC(=O)[C@H](Cc1c[nH]c2ccccc12)NC(=O)[C@H](CCCCN)NC(=O)[C@H](CCSC)NC(=O)[C@H](CCCNC(=N)N)NC(=O)[C@H](CCCNC(=N)N)NC(=O)[C@H](CC(N)=O)NC(=O)[C@H](CCC(N)=O)NC(=O)[C@H](Cc1ccccc1)NC(=O)[C@H](Cc1c[nH]c2ccccc12)NC(=O)[C@@H](NC(=O)[C@H](CCCCN)NC(=O)[C@@H](NC(=O)[C@H](CCC(N)=O)NC(=O)[C@@H](N)CCCNC(=N)N)[C@@H](C)CC)[C@@H](C)CC)C(=O)NCC(=O)N[C@@H](CC(N)=O)C(=O)N[C@@H](CO)C(=O)N[C@@H](Cc1ccc(O)cc1)C(=O)N[C@@H](Cc1ccccc1)C(=O)N[C@@H](CCCCN)C(=O)O [Antp K16R-TPR] (H-RQIKIWFQNRRMKWKRKAYARIGNSYFK-OH; N-terminus and C-terminus assumed)
killing effect compared with the wild-type peptide (Caki-1): stronger than that of the wild-type peptide | Anti-cancer activity (% relative to wild-type peptide) (Caki-1): 110.26% | Decrease in cell survival rate (% relative to wild-type peptide) (Caki-1): 709.01% | effect compared with the wild-type protein (summary of mutations) (cancer cells): effect higher than the wild-type protein

CC[C@H](C)[C@H](NC(=O)[C@H](CCCNC(=N)N)NC(=O)[C@H](C)NC(=O)[C@H](Cc1ccc(O)cc1)NC(=O)[C@H](C)NC(=O)[C@H](CCCCN)NC(=O)[C@H](CCCCN)NC(=O)[C@H](CCCCN)NC(=O)[C@H](Cc1c[nH]c2ccccc12)NC(=O)[C@H](CCCCN)NC(=O)[C@H](CS)NC(=O)[C@H](CCCNC(=N)N)NC(=O)[C@H](CCCNC(=N)N)NC(=O)[C@H](CC(N)=O)NC(=O)[C@H](CCC(N)=O)NC(=O)[C@H](Cc1ccccc1)NC(=O)[C@H](Cc1c[nH]c2ccccc12)NC(=O)[C@@H](NC(=O)[C@H](CCCCN)NC(=O)[C@@H](NC(=O)[C@H](CCC(N)=O)NC(=O)[C@@H](N)CCCNC(=N)N)[C@@H](C)CC)[C@@H](C)CC)C(=O)NCC(=O)N[C@@H](CC(N)=O)C(=O)N[C@@H](CO)C(=O)N[C@@H](Cc1ccc(O)cc1)C(=O)N[C@@H](Cc1ccccc1)C(=O)N[C@@H](CCCCN)C(=O)O [Antp M12C-TPR] (H-RQIKIWFQNRRCKWKKKAYARIGNSYFK-OH; N-terminus and C-terminus assumed)
killing effect compared with the wild-type peptide (Caki-1): stronger than that of the wild-type peptide | Anti-cancer activity (% relative to wild-type peptide) (Caki-1): 102.68% | Decrease in cell survival rate (% relative to wild-type peptide) (Caki-1): 128.91% | effect compared with the wild-type protein (summary of mutations) (cancer cells): effect higher than the wild-type protein

CC[C@H](C)[C@H](NC(=O)[C@H](CCCNC(=N)N)NC(=O)[C@H](C)NC(=O)[C@H](Cc1ccc(O)cc1)NC(=O)[C@H](C)NC(=O)[C@H](CCCCN)NC(=O)[C@H](CCCCN)NC(=O)[C@H](CCCCN)NC(=O)[C@H](Cc1c[nH]c2ccccc12)NC(=O)[C@H](CCCCN)NC(=O)[C@H](CCSC)NC(=O)[C@H](CCCNC(=N)N)NC(=O)[C@H](CCCNC(=N)N)NC(=O)[C@H](CCC(N)=O)NC(=O)[C@H](CCC(N)=O)NC(=O)[C@H](Cc1ccccc1)NC(=O)[C@H](Cc1c[nH]c2ccccc12)NC(=O)[C@@H](NC(=O)[C@H](CCCCN)NC(=O)[C@@H](NC(=O)[C@H](CCC(N)=O)NC(=O)[C@@H](N)CCCNC(=N)N)[C@@H](C)CC)[C@@H](C)CC)C(=O)NCC(=O)N[C@@H](CC(N)=O)C(=O)N[C@@H](CO)C(=O)N[C@@H](Cc1ccc(O)cc1)C(=O)N[C@@H](Cc1ccccc1)C(=O)N[C@@H](CCCCN)C(=O)O [Antp N9Q-TPR] (H-RQIKIWFQQRRMKWKKKAYARIGNSYFK-OH; N-terminus and C-terminus assumed)
killing effect compared with the wild-type peptide (Caki-1): stronger than that of the wild-type peptide | Anti-cancer activity (% relative to wild-type peptide) (Caki-1): 110.59% | Decrease in cell survival rate (% relative to wild-type peptide) (Caki-1): 881.03% | effect compared with the wild-type protein (summary of mutations) (cancer cells): effect higher than the wild-type protein

CC[C@H](C)[C@H](NC(=O)[C@H](CCCNC(=N)N)NC(=O)[C@H](C)NC(=O)[C@H](Cc1ccc(O)cc1)NC(=O)[C@H](C)NC(=O)[C@H](CCCCN)NC(=O)[C@H](CCCCN)NC(=O)[C@H](CCCCN)NC(=O)[C@H](Cc1c[nH]c2ccccc12)NC(=O)[C@H](CCCCN)NC(=O)[C@H](CCSC)NC(=O)[C@H](CCCNC(=N)N)NC(=O)[C@H](CCCNC(=N)N)NC(=O)[C@H](CC(N)=O)NC(=O)[C@H](CCC(N)=O)NC(=O)[C@H](Cc1ccccc1)NC(=O)[C@H](Cc1c[nH]c2ccccc12)NC(=O)[C@@H](NC(=O)[C@H](CCCCN)NC(=O)[C@@H](NC(=O)[C@H](CC(N)=O)NC(=O)[C@@H](N)CCCNC(=N)N)[C@@H](C)CC)[C@@H](C)CC)C(=O)NCC(=O)N[C@@H](CC(N)=O)C(=O)N[C@@H](CO)C(=O)N[C@@H](Cc1ccc(O)cc1)C(=O)N[C@@H](Cc1ccccc1)C(=O)N[C@@H](CCCCN)C(=O)O [Antp Q2N-TPR] (H-RNIKIWFQNRRMKWKKKAYARIGNSYFK-OH; N-terminus and C-terminus assumed)
Anti-cancer activity (% relative to wild-type peptide) (Caki-1): 88.97% | Decrease in cell survival rate (% relative to wild-type peptide) (Caki-1): 52.02% | effect compared with the wild-type protein (summary of mutations) (cancer cells): effect similar to that of the wild-type protein

CC[C@H](C)[C@H](NC(=O)[C@H](CCCNC(=N)N)NC(=O)[C@H](C)NC(=O)[C@H](Cc1ccc(O)cc1)NC(=O)[C@H](C)NC(=O)[C@H](CCCCN)NC(=O)[C@H](CCCCN)NC(=O)[C@H](CCCCN)NC(=O)[C@H](Cc1c[nH]c2ccccc12)NC(=O)[C@H](CCCCN)NC(=O)[C@H](CCSC)NC(=O)[C@H](CCCNC(=N)N)NC(=O)[C@H](CCCNC(=N)N)NC(=O)[C@H](CC(N)=O)NC(=O)[C@H](CC(N)=O)NC(=O)[C@H](Cc1ccccc1)NC(=O)[C@H](Cc1c[nH]c2ccccc12)NC(=O)[C@@H](NC(=O)[C@H](CCCCN)NC(=O)[C@@H](NC(=O)[C@H](CCC(N)=O)NC(=O)[C@@H](N)CCCNC(=N)N)[C@@H](C)CC)[C@@H](C)CC)C(=O)NCC(=O)N[C@@H](CC(N)=O)C(=O)N[C@@H](CO)C(=O)N[C@@H](Cc1ccc(O)cc1)C(=O)N[C@@H](Cc1ccccc1)C(=O)N[C@@H](CCCCN)C(=O)O [Antp Q8N-TPR] (H-RQIKIWFNNRRMKWKKKAYARIGNSYFK-OH; N-terminus and C-terminus assumed)
killing effect compared with the wild-type peptide (Caki-1): stronger than that of the wild-type peptide | Anti-cancer activity (% relative to wild-type peptide) (Caki-1): 109.65% | Decrease in cell survival rate (% relative to wild-type peptide) (Caki-1): 519.29% | effect compared with the wild-type protein (summary of mutations) (cancer cells): effect similar to that of the wild-type protein

CC[C@H](C)[C@H](NC(=O)[C@H](CCCNC(=N)N)NC(=O)[C@H](C)NC(=O)[C@H](Cc1ccc(O)cc1)NC(=O)[C@H](C)NC(=O)[C@H](CCCCN)NC(=O)[C@H](CCCCN)NC(=O)[C@H](CCCCN)NC(=O)[C@H](Cc1c[nH]c2ccccc12)NC(=O)[C@H](CCCCN)NC(=O)[C@H](CCSC)NC(=O)[C@H](CCCNC(=N)N)NC(=O)[C@H](CCCCN)NC(=O)[C@H](CC(N)=O)NC(=O)[C@H](CCC(N)=O)NC(=O)[C@H](Cc1ccccc1)NC(=O)[C@H](Cc1c[nH]c2ccccc12)NC(=O)[C@@H](NC(=O)[C@H](CCCCN)NC(=O)[C@@H](NC(=O)[C@H](CCC(N)=O)NC(=O)[C@@H](N)CCCNC(=N)N)[C@@H](C)CC)[C@@H](C)CC)C(=O)NCC(=O)N[C@@H](CC(N)=O)C(=O)N[C@@H](CO)C(=O)N[C@@H](Cc1ccc(O)cc1)C(=O)N[C@@H](Cc1ccccc1)C(=O)N[C@@H](CCCCN)C(=O)O [Antp R10K-TPR] (H-RQIKIWFQNKRMKWKKKAYARIGNSYFK-OH; N-terminus and C-terminus assumed)
killing effect compared with the wild-type peptide (Caki-1): stronger than that of the wild-type peptide | Anti-cancer activity (% relative to wild-type peptide) (Caki-1): 110.30% | Decrease in cell survival rate (% relative to wild-type peptide) (Caki-1): 727.03% | effect compared with the wild-type protein (summary of mutations) (cancer cells): effect similar to that of the wild-type protein

CC[C@H](C)[C@H](NC(=O)[C@H](CCCNC(=N)N)NC(=O)[C@H](C)NC(=O)[C@H](Cc1ccc(O)cc1)NC(=O)[C@H](C)NC(=O)[C@H](CCCCN)NC(=O)[C@H](CCCCN)NC(=O)[C@H](CCCCN)NC(=O)[C@H](Cc1c[nH]c2ccccc12)NC(=O)[C@H](CCCCN)NC(=O)[C@H](CCSC)NC(=O)[C@H](CCCCN)NC(=O)[C@H](CCCNC(=N)N)NC(=O)[C@H](CC(N)=O)NC(=O)[C@H](CCC(N)=O)NC(=O)[C@H](Cc1ccccc1)NC(=O)[C@H](Cc1c[nH]c2ccccc12)NC(=O)[C@@H](NC(=O)[C@H](CCCCN)NC(=O)[C@@H](NC(=O)[C@H](CCC(N)=O)NC(=O)[C@@H](N)CCCNC(=N)N)[C@@H](C)CC)[C@@H](C)CC)C(=O)NCC(=O)N[C@@H](CC(N)=O)C(=O)N[C@@H](CO)C(=O)N[C@@H](Cc1ccc(O)cc1)C(=O)N[C@@H](Cc1ccccc1)C(=O)N[C@@H](CCCCN)C(=O)O [Antp R11K-TPR] (H-RQIKIWFQNRKMKWKKKAYARIGNSYFK-OH; N-terminus and C-terminus assumed)
killing effect compared with the wild-type peptide (Caki-1): stronger than that of the wild-type peptide | Anti-cancer activity (% relative to wild-type peptide) (Caki-1): 104.39% | Decrease in cell survival rate (% relative to wild-type peptide) (Caki-1): 158.09% | effect compared with the wild-type protein (summary of mutations) (cancer cells): effect similar to that of the wild-type protein
